{"source": "patent US20230218573A1", "about": "“INDOLE COMPOUNDS FOR THE TREATMENT OF NEURODEGENERATIVE DISEASES” (GALYAN BIO, INC., priority 2020, published 2023)", "key": {"[1]": {"experiment": "Pharmacokinetics, plasma and brain concentration by UHPLC-TOF", "type": "in vivo, mice", "protocol": "Compound 22 is an analog of Compound 7. […] Compound 22 pharmacokinetic properties was measured in three male CD1 mice at several timepoints. Compound 22 was dissolved in 10% DMSO, 10%, cremaphor, and 80% saline. The tested dose was 33.3 mg/kg body weight. Brain tissue was homogenized and protein precipitated with acetonitrile. […] As such, Compound 22 was selected for testing in an animal model of HD the R6/2 model. As described below, Compound 22 and its analogs were further tested for their effects on striatal cell viability and effects of mHTT levels."}, "[2]": {"tested_on": "KCNA1", "experiment": "Nanostring gene expression in STHdh 111/111 cells: Kcna", "type": "cell-based, mouse", "settings": "treated STHdh 111/111 (Q111-10), 48 h; in comparison to untreated STHdh 111/111", "protocol": "Gene expression of certain transcripts of interest were measured using Nanostring Technology. […] Some STHdh 7/7 and STHdh 111/111 cell samples were not heat shocked and some wells were treated with Compound 22 at the indicated concentration on for 48 hours (Table 12). Some STHdh 7/7 and STHdh 111/111 cell samples were heat shocked for 3 hours some wells were treated with Compound 22 at the indicated concentration on for 48 hours (Table 13). Cells are washed with PBS, trypsinised, and gathered in a 15 ml falcon tube. After a short spin down for 3 minutes at 300 g, the cell pellet was washed with PBS once, before it was frozen down in liquid nitrogen. RNA was extracted with a standard protocol. The nCounter® Mouse Neuropathology Panel (Nanostring, Seattle) was used for gene expression analysis according to the manufacturer’s protocols."}, "[3]": {"tested_on": "STHdh 7/7 striatal cells", "experiment": "Cell viability of heat shocked STHdh 7/7 striatal cells", "type": "cell-based, mouse", "settings": "Mus musculus, 48 hours treatment, read-out: Cell Viability striatal cells 3h heat shocked", "protocol": "RESULTS - Table 7b summarizes the effect of the compounds on cell viability. STHdh 7/7 were heat shocked for 3 hours and treated for 48 hours with small molecule compounds. Table 2 lists the cell viability in striatal cells after 48 hours.\nEffect of Compound 22 on Cell Viability of Wildtype Striatal Neurons - STHdh 7/7 cells are striatal cells that express wildtype huntingtin. These cells were cultured in the same conditions as described above for STHdh 111/111. The neurons were first heat shocked for 3 hours at 41° C. as described above. After 48 hours of treatment with the small molecule Compounds, cell viability was determined using the method described above. The “buffer” control is represents cells treated with a buffer only, without any compounds added. Some of the compounds show higher cell viability in comparison to control heat shocked STHdh 7/7 neurons with buffer and no treatment (FIG. 9)."}, "[4]": {"tested_on": "Exon1 Q46", "experiment": "Circular dichroism of Exon1 Q46, predominantly α-helical state", "type": "biochemical", "settings": "increasing doses", "protocol": "Protein samples were diluted with buffer to 7.5 µM prior to Circular Dichroism (CD) measurements. Measurements were conducted at room temperature.\nFour spectra at each measurement were taken every 1 nm from 200 to 260 nm, scanning at 50 nm/min with an averaging time of 1 sec. Spectra were obtained from samples in 20 mM phosphate, pH 7.4. Ten scans were averaged for each sample spectrum\nSingle-wavelength readings at 222 nm were obtained. After subtraction of the Trx contribution, the α-helical content of Httex1 was estimated from its mean residue ellipticity (MREHttex1) at 222 nm. This calculation was conducted as described by Bravo-Arredondo (Bravo-Arredondo, J.M. et al., J Biol Chem. 2018 Dec 21;293(51):19613-19623).\nMRE Exon-1 […] and Q46 (Mean Residue Ellipticity) was measured every 1 sec for 300 sec; the 301 readings for each sample were averaged and MRE Trx subtracted. The number of amino acids in each sample to experience a change in helicity was estimated using a previously developed helix-coil transition model, which gave the change in fraction of helicity (ΔfHelix) by the following equation: […]\nwhere MRE Exon1 Q26 or Q46 (MREHttex1 in the formula) describes the helix-coil transition, obtained from the difference between MRE Eon1 Q26 or Q46 at 222 nm of the fusion protein at the given temperature (in our case 37° C.) and the product of MRE Trx at 222 nm at the same temperature and the fraction of residues comprised by Trx in that particular construct, and\nIn order to calculate an equilibrium of the two states model, percent α-helicity was calculated using the relation of MREHttex1 = 0 and -34700 (deg cm^2 dmol^-1) for 0% and 100% helicity, respectively.\nThe CD measurements protocol for Compound 101 was the same as outlined above except that from 206 nm - 210 nm and 220 nm - 224 nm, the step size was 0.2 nm, and the bandwidth was 1 nm."}}, "note": "Entries after “also recorded” stand apart in the source; their conditions may differ.", "data": [{"smiles": "Cc1[nH]c2ccc(C(=O)NCCN(C(C)C)C(C)C)cc2c1C", "note": "[Compound 22]", "values": [{"measurement": "penetration of the blood brain area in vivo", "setting": "[1]; male CD1 mice, 33.3 mg/kg body weight, 33.3 mg/kg", "result": "penetrates the blood brain area; also recorded: can penetrate the blood brain area in vivo"}, {"measurement": "crossing of the blood brain barrier", "setting": "[1]; mouse, in vivo", "result": "can cross the blood brain barrier"}, {"measurement": "Kcna1 expression increased by", "setting": "[2]", "result": 68, "unit": "%"}, {"measurement": "viability at 10 µM", "setting": "[3]", "result": 34.9, "unit": "%"}, {"measurement": "effect of increasing doses on the predominantly α-helical state of Exon1 Q46", "setting": "[4]", "result": "decreases the proportion of a predominantly α-helical state"}]}]}
